In this series the test system is CCRIS mutagenicity, Ames/micronucleus/aberration tests. As to the kind of experiment: CCRIS mutagenicity studies.
[1] abbreviates: Test System: AMES SALMONELLA TYPHIMURIUM, Strain/Indicator: TA98, Metabolic Activation: NONE, Method: PREINCUBATION
The mark [2] stands for this setting: Test System: AMES SALMONELLA TYPHIMURIUM, Strain/Indicator: TA98, Metabolic Activation: NONE, Method: STANDARD PLATE.
Where [3] appears, read: Test System: AMES SALMONELLA TYPHIMURIUM, Strain/Indicator: TA100, Metabolic Activation: NONE, Method: PREINCUBATION
[4] abbreviates: Test System: AMES SALMONELLA TYPHIMURIUM, Strain/Indicator: TA100, Metabolic Activation: NONE, Method: STANDARD PLATE.

We go through 5 compounds from PubChem BioAssay AID1259407 (Chemical Carcinogenesis Research Information System (CCRIS), 2018).

Molecules are shown by their SMILES. The source made the active and inactive calls. How the calls were made is not given here.

In the case of `O=C1OC2(c3ccccc31)c1cc(I)c(O)c(I)c1Oc1c2cc(I)c(O)c1I`, the mutagenic call was “inactive; negative” (Test System: AMES SALMONELLA TYPHIMURIUM, Strain/Indicator: TA97A, Metabolic Activation: NONE, Method: PREINCUBATION); “inactive; negative” (Test System: AMES SALMONELLA TYPHIMURIUM, Strain/Indicator: TA97A, Metabolic Activation: RAT CECAL CELL-FREE EXTRACTS, Method: PREINCUBATION); “inactive; negative” (Test System: AMES SALMONELLA TYPHIMURIUM, Strain/Indicator: TA97A, Metabolic Activation: RAT, LIVER, S9, AROCLOR 1254, Method: PREINCUBATION); “inactive; negative” under setting [1]; “inactive; negative” under setting [2]; “inactive; negative” (Test System: AMES SALMONELLA TYPHIMURIUM, Strain/Indicator: TA98, Metabolic Activation: RAT CECAL CELL-FREE EXTRACTS, Method: PREINCUBATION). Moreover, the mutagenic call (Test System: AMES SALMONELLA TYPHIMURIUM, Strain/Indicator: TA98, Metabolic Activation: RAT, LIVER, S9, AROCLOR 1254, Method: PREINCUBATION) was “inactive; negative”; the mutagenic call (Test System: AMES SALMONELLA TYPHIMURIUM, Strain/Indicator: TA98, Metabolic Activation: RAT, LIVER, S9, AROCLOR 1254, Method: STANDARD PLATE) is “inactive; negative”; the mutagenic call (Test System: AMES SALMONELLA TYPHIMURIUM, Strain/Indicator: TA98, Metabolic Activation: S9, Method: PREINCUBATION) is “inactive; negative”; the mutagenic call under setting [3] is “inactive; negative”; the mutagenic call under setting [4] was “inactive; negative”; the mutagenic call (Test System: AMES SALMONELLA TYPHIMURIUM, Strain/Indicator: TA100, Metabolic Activation: RAT CECAL CELL-FREE EXTRACTS, Method: PREINCUBATION) was “inactive; negative”. For the same compound, the mutagenic call was “inactive; negative” (Test System: AMES SALMONELLA TYPHIMURIUM, Strain/Indicator: TA100, Metabolic Activation: RAT, LIVER, S9, AROCLOR 1254, Method: PREINCUBATION); “inactive; negative” (Test System: AMES SALMONELLA TYPHIMURIUM, Strain/Indicator: TA100, Metabolic Activation: RAT, LIVER, S9, AROCLOR 1254, Method: STANDARD PLATE); “inactive; negative” (Test System: AMES SALMONELLA TYPHIMURIUM, Strain/Indicator: TA100, Metabolic Activation: S9, Method: PREINCUBATION); “inactive; negative” (Test System: AMES SALMONELLA TYPHIMURIUM, Strain/Indicator: TA102, Metabolic Activation: NONE, Method: PREINCUBATION); “inactive; negative” (Test System: AMES SALMONELLA TYPHIMURIUM, Strain/Indicator: TA102, Metabolic Activation: RAT CECAL CELL-FREE EXTRACTS, Method: PREINCUBATION); “inactive; negative” (Test System: AMES SALMONELLA TYPHIMURIUM, Strain/Indicator: TA102, Metabolic Activation: RAT, LIVER, S9, AROCLOR 1254, Method: PREINCUBATION). Also, the mutagenic call reads like this: (Test System: AMES SALMONELLA TYPHIMURIUM, Strain/Indicator: TA104, Metabolic Activation: NONE, Method: PREINCUBATION) “inactive; negative”; (Test System: AMES SALMONELLA TYPHIMURIUM, Strain/Indicator: TA104, Metabolic Activation: RAT CECAL CELL-FREE EXTRACTS, Method: PREINCUBATION) “inactive; negative”; (Test System: AMES SALMONELLA TYPHIMURIUM, Strain/Indicator: TA104, Metabolic Activation: RAT, LIVER, S9, AROCLOR 1254, Method: PREINCUBATION) “inactive; negative”; (Test System: AMES SALMONELLA TYPHIMURIUM, Strain/Indicator: TA1535, Metabolic Activation: NONE, Method: STANDARD PLATE) “inactive; negative”; (Test System: AMES SALMONELLA TYPHIMURIUM, Strain/Indicator: TA1535, Metabolic Activation: RAT, LIVER, S9, AROCLOR 1254, Method: STANDARD PLATE) “inactive; negative”; (Test System: AMES SALMONELLA TYPHIMURIUM, Strain/Indicator: TA1537, Metabolic Activation: NONE, Method: STANDARD PLATE) “inactive; negative”. The mutagenic call reads like this: (Test System: AMES SALMONELLA TYPHIMURIUM, Strain/Indicator: TA1537, Metabolic Activation: RAT, LIVER, S9, AROCLOR 1254, Method: STANDARD PLATE) “inactive; negative”; (Test System: AMES SALMONELLA TYPHIMURIUM, Strain/Indicator: TA1538, Metabolic Activation: NONE, Method: STANDARD PLATE) “inactive; negative”; (Test System: AMES SALMONELLA TYPHIMURIUM, Strain/Indicator: TA1538, Metabolic Activation: RAT, LIVER, S9, AROCLOR 1254, Method: STANDARD PLATE) “inactive; negative”; (Test System: MOUSE LYMPHOMA, Strain/Indicator: L5178Y (TK+/TK-), Metabolic Activation: RAT, LIVER, S9, AROCLOR 1254, Method: SUSPENSION/PLATE) “inactive; negative”.

For `NNc1nc(-c2ccc(N)cc2)cs1`, the mutagenic call (Test System: AMES SALMONELLA TYPHIMURIUM, Strain/Indicator: TA98, Metabolic Activation: RAT, LIVER, S-9, KC500 OR PHENOBARBITAL, Method: LIQUID SUSPENSION) was “active; positive” and the mutagenic call (Test System: AMES SALMONELLA TYPHIMURIUM, Strain/Indicator: TA100, Metabolic Activation: RAT, LIVER, S-9, KC500 OR PHENOBARBITAL, Method: LIQUID SUSPENSION) is “active; positive”.

`COc1cc(-c2ccc(N/N=C3\C=Cc4c(S(=O)(=O)O)cc(S(=O)(=O)O)c(N)c4C3=O)c(OC)c2)ccc1N/N=C1/C=Cc2c(S(=O)(=O)O)cc(S(=O)(=O)O)c(N)c2C1=O`: the mutagenic call reads like this: (Test System: AMES SALMONELLA TYPHIMURIUM, Strain/Indicator: TA98, Metabolic Activation: HAMSTER, LIVER, S-9, Method: PREINCUBATION (PRIVAL METHOD)) “active; positive”; (Test System: Ames Salmonella typhimurium, Strain/Indicator: TA98, Metabolic Activation: Rat, Liver, S-9, Sodium phenobarbitone, Method: Preincubation) “inactive; negative, test conducted under both aerobic and anaerobic conditions”; (Test System: Ames Salmonella typhimurium, Strain/Indicator: TA1538, Metabolic Activation: Rat, Liver, S-9, Sodium phenobarbitone, Method: Preincubation) “inactive; negative, test conducted under both aerobic and anaerobic conditions”.

Consider `C=CCNCC=C`, for which the mutagenic call is “inactive; negative” (Test System: AMES SALMONELLA TYPHIMURIUM, Strain/Indicator: TA98, Metabolic Activation: HAMSTER, LIVER, S-9, AROCLOR 1254 (10%), Method: PREINCUBATION); “inactive; negative” under setting [1]; “inactive; negative” (Test System: AMES SALMONELLA TYPHIMURIUM, Strain/Indicator: TA98, Metabolic Activation: RAT, LIVER, S-9, AROCLOR 1254 (10%), Method: PREINCUBATION); “inactive; negative” (Test System: AMES SALMONELLA TYPHIMURIUM, Strain/Indicator: TA100, Metabolic Activation: HAMSTER, LIVER, S-9, AROCLOR 1254 (10%), Method: PREINCUBATION); “inactive; negative” under setting [3]; “inactive; negative” (Test System: AMES SALMONELLA TYPHIMURIUM, Strain/Indicator: TA100, Metabolic Activation: RAT, LIVER, S-9, AROCLOR 1254 (10%), Method: PREINCUBATION). Further, the mutagenic call is “inactive; negative” (Test System: AMES SALMONELLA TYPHIMURIUM, Strain/Indicator: TA1535, Metabolic Activation: HAMSTER, LIVER, S-9, AROCLOR 1254 (10%), Method: PREINCUBATION); “inactive; negative” (Test System: AMES SALMONELLA TYPHIMURIUM, Strain/Indicator: TA1535, Metabolic Activation: NONE, Method: PREINCUBATION); “inactive; negative” (Test System: AMES SALMONELLA TYPHIMURIUM, Strain/Indicator: TA1535, Metabolic Activation: RAT, LIVER, S-9, AROCLOR 1254 (10%), Method: PREINCUBATION); “inactive; negative” (Test System: AMES SALMONELLA TYPHIMURIUM, Strain/Indicator: TA1537, Metabolic Activation: HAMSTER, LIVER, S-9, AROCLOR 1254 (10%), Method: PREINCUBATION); “inactive; negative” (Test System: AMES SALMONELLA TYPHIMURIUM, Strain/Indicator: TA1537, Metabolic Activation: NONE, Method: PREINCUBATION); “inactive; negative” (Test System: AMES SALMONELLA TYPHIMURIUM, Strain/Indicator: TA1537, Metabolic Activation: RAT, LIVER, S-9, AROCLOR 1254 (10%), Method: PREINCUBATION).

Take `CC(C)(C)NCC(O)COc1cccc2c1CCCC2=O` (centres undefined): the mutagenic call is, setting by setting: under setting [2], “inactive; negative”; (Test System: AMES SALMONELLA TYPHIMURIUM, Strain/Indicator: TA98, Metabolic Activation: RAT, LIVER, S-9, AROCLOR 1254, Method: STANDARD PLATE) “inactive; negative”; under setting [4], “inactive; negative”; (Test System: AMES SALMONELLA TYPHIMURIUM, Strain/Indicator: TA100, Metabolic Activation: RAT, LIVER, S-9, AROCLOR 1254, Method: STANDARD PLATE) “inactive; negative”.
